Assay results taken from patent publication US7906308B2, “Phosphorylation and regulation of Akt/PKB by the rictor-mTOR complex” (Whitehead Institute for Biomedical Research, priority 2005, dated 2011).

How the values were obtained:
[1] = molecular target: T1, rictor-mTOR complex (Homo sapiens, UniProt P42345); test: rictor-mTOR immunoprecipitate kinase assay with Akt1/PKB1 as substrate; type: biochemical; conditions: immunoprecipitates from HEK-293T or HeLa cells; FIG. 3C
T1 construct: Immunoprecipitates prepared from lysates of HEK-293T or HeLa cells with the indicated antibodies; endogenous in cells; host or cells: A1: HEK-293T or HeLa; A11: PC3, BJAB, Jurkat, HeLa, H460 (treated with rapamycin before lysis)
Experimental: For all immunoprecipitation experiments the lysis buffer contained 0.3% CHAPS instead of 1% Triton in order to preserve the integrity of the mTOR complexes (D. D. Sarbassov et al., Curr Biol 14, 1296 (2004); D.-H. Kim et al., Cell 110, 163 (2002)). 4 μg of the indicated antibodies were added to the cleared cellular lysates and incubated with rotation for 90-min. 25 μl of a 50% slurry of protein G-sepharose was then added and the incubation continued for 1 h. Immunoprecipitates captured with protein G-sepharose were washed four times with the CHAPS Lysis Buffer and once with the rictor-mTOR kinase buffer (25 mM Hepes pH 7.5, 100 mM potassium acetate, 1 mM MgCl2). […] After a quick spin, the supernatant was removed from the protein G-sepharose and analyzed by immunoblotting (D.-H. Kim et al., Cell 110, 163 (2002)). […] Supernatants were used in the Akt1/PKB1 kinase assay as described below and were also analyzed by immunoblotting. The pelleted G-sepharose beads were also analyzed by immunoblotting to determine the levels of rictor, mTOR, and raptor in the immunoprecipitates. Akt1/PKB1 kinase activity was determined using Crosstide (Upstate Biotechnology, #12-331) as substrate as recommended by the manufacturers protocol. […] After the washing, the P81 squares were dried and radioactivity read in a scintillation counter.

[2] = system: PC3 cells; test: apoptosis by DNA fragmentation (Cell Death Detection Elisa); conditions: PC3 cells expressing wild-type or S473D Akt1/PKB1, 100 μM
Experimental: Cells were selected for one week in 200 μg/ml hygromycin before use. 15,000 PC3 (MSCV controls, WT Akt1/PKB1, or 473D Akt1/PKB1) cells were seeded in the wells of a 96 well-plate and cultured overnight. The next day the cells were rinsed once in serum-free medium and then cultured for 48 hrs in serum-free medium containing either DMSO (the small molecule vehicle), 100 nM rapamycin, 100 μM indole-3-carbinol, or both rapamycin and indole-3-carbinol. When indole-3-carbinol was used, 0.002% BSA was added to the medium. After 48 hours in culture all cells (adherent and floating) were processed with the Cell Death Detection Elisa plus (Roche, cat# 1774425) as described by the manufacturer.

[3] = system: PC3 cells; conditions: literature (Chinni & Sarkar); cited from earlier work
[4] = Morrisett et al. 2003; cited from earlier work
[5] = molecular target: mTORC2 assembly (Homo sapiens, UniProt P42345+P62942); test: 35S pulse-chase of newly synthesized mTOR bound to rictor; type: cell-based; conditions: 100 nM
mTORC2 assembly, sequence (P62942 2-108 limits assumed, other chains not shown): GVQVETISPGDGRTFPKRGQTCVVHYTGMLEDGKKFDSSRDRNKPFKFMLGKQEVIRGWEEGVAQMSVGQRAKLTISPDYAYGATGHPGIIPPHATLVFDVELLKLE
Experimental: 4×10^6 Hela or PC3 cells growing in 100 mm dishes were treated with 100 nM rapamycin or vehicle control for 20 minutes, rinsed once in methionine- and cysteine-free DMEM, and then incubated in 3.5 ml of the same medium containing 10% dialyzed serum and 0.1 mCi/ml of ^35S-methionine/^35S-cysteine (Express Protein Labeling Mix, Perkin Elmer). After allowing the cells to label for 30 minutes, the cells were washed once in the normal culture medium and incubated in fresh medium for the periods of time indicated in the figures. […] Quantification was performed using images acquired with a phosphoimager.

[6] = tissue penetration with phospho-S6 as marker; type: in vivo, mice; conditions: 10 mg/kg intraperitoneal daily
Experimental: (§1) 1 mg of rapamycin was dissolved in 20 μl of ethanol, which was then diluted with Ringer's saline solution to a final concentration of 1 mg/ml directly before use. Three-month old male C57BL/6NTac (Taconic) mice were administered daily intraperitioneal injections of 10 mg/kg rapamycin or the drug vehicle for 7 days. Mice were then euthanized with CO2, organs were harvested into RIPA buffer, and homogenized with mechanical disruption followed by sonication. […] The experiment was repeated twice with similar results.

[7] = food intake during 7-day treatment; type: in vivo, mice; conditions: 10 mg/kg daily
Experimental: as §1

[8] = molecular target: rictor (UniProt Q6R327)
[9] = molecular target: full length, wild-type Akt1/PKB1 (inactive, Upstate Biotechnology #14-279) (UniProt P31749)
full length, wild-type Akt1/PKB1 (inactive, Upstate Biotechnology #14-279), sequence (P31749 whole entry, looked up, tested part not stated): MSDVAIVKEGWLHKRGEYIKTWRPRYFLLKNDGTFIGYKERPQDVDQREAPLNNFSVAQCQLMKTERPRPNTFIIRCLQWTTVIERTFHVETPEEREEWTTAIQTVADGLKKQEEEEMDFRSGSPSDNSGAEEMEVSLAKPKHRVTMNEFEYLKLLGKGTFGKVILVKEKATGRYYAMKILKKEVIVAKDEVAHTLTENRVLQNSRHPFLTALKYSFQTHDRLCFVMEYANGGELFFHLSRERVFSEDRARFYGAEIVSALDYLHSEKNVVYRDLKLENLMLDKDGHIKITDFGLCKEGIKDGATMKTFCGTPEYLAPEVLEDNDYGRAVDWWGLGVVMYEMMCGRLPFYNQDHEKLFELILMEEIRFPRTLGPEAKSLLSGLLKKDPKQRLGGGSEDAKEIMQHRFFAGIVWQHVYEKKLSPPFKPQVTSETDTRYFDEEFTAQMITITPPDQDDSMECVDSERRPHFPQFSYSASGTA

CN[C@@H]1C[C@H]2O[C@@](C)([C@@H]1OC)n1c3ccccc3c3c4c(c5c6ccccc6n2c5c31)C(=O)NC4 [Staurosporine, staurosporine]
in vitro phosphorylation of Akt/PKB by rictor-mTOR [1]: did not decrease

OCc1c[nH]c2ccccc12 [indole-3-carbinol]
induction of apoptosis [2]: decreased the capacity of indole-3-carbinol to induce apoptosis
apoptosis in PC3 cells [3]: known to induce apoptosis

CO[C@H]1C[C@@H]2CC[C@@H](C)[C@@](O)(O2)C(=O)C(=O)N2CCCC[C@H]2C(=O)O[C@H]([C@H](C)C[C@@H]2CC[C@@H](O)[C@H](OC)C2)CC(=O)[C@H](C)/C=C(\C)[C@@H](O)[C@@H](OC)C(=O)[C@H](C)C[C@H](C)/C=C/C=C/C=C/1C [rapamycin]
side effect in patients [4]: hyperlipidemia commonly seen
interaction between newly-synthesized mTOR and rictor prevented ([5]; HeLa cells): 80%
interaction between newly-synthesized mTOR and rictor prevented ([5]; PC3 cells): 100%
tissue penetration [6]: penetrates all major tissues except the brain
food intake versus vehicle [7]: ate similar amounts

mTOR (mammalian Target of Rapamycin kinase)
in vitro kinase activity of rictor immunoprecipitates towards Akt/PKB [8]: in HeLa and H460 cells treated with rapamycin for 24 hours, a greater amount of mTOR remained bound to rictor and this correlated with a higher level of kinase activity towards Akt/PKB
in vitro phosphorylation of Akt/PKB by immunoprecipitates [8]: the raptor immunoprecipitates also contain mTOR but did not phosphorylate Akt/PKB

rictor-mTOR complex
phosphorylation of S473 of Akt/PKB in vitro (immunoblot) [9]: Rictor-mTOR complexes isolated from HEK-293T or HeLa phosphorylated S473 but not T308 of full length, wild-type Akt/PKB in vitro
